For this assay, the target named is Metabotropic glutamate receptor 7 (Rattus norvegicus) (UniProt P35400). In words: off-target activity at rat mGlu7, profiling panel, selectivity assay for mGlu4 lead optimization, cell-based, thallium flux, L-AP4 agonist (AID 623893). To be noted: mGlu7 cells, at 10 µM.

These results are taken from PubChem BioAssay AID623893 (Vanderbilt Specialized Chemistry Center, 2012).

The source made the active and inactive calls.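 How the source made its calls: active means fold change in agonist EC50 with compound of 2 or more, a potentiator, or 0.5 or less, a blocker; inactive means fold change strictly between 0.5 and 2.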

Metabotropic glutamate receptor 7 (Rattus norvegicus), sequence (P35400 whole entry, looked up): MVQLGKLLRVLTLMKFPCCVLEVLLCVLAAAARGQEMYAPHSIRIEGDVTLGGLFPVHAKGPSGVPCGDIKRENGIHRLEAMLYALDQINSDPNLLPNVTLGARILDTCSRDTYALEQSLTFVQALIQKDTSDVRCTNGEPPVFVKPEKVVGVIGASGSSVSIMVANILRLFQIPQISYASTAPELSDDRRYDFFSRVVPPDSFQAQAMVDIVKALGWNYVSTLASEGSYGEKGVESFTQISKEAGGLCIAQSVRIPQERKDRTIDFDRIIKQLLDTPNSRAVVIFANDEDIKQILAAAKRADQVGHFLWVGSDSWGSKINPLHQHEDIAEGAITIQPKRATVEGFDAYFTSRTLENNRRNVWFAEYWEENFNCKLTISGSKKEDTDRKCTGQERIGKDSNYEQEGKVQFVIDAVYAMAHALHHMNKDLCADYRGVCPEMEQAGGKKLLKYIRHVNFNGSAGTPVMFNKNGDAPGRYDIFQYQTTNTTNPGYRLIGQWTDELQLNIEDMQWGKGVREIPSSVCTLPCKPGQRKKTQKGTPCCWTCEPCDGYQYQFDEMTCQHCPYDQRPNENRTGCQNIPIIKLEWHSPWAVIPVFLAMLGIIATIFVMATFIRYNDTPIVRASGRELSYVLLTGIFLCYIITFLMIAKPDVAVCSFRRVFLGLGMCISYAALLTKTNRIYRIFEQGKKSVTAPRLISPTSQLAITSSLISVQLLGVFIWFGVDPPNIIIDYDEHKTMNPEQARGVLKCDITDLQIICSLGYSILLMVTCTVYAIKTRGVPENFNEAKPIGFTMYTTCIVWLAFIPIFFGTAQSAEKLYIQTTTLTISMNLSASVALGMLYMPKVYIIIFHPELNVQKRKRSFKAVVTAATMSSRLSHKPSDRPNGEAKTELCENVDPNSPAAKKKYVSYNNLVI

For `O=C(Nc1cccc(Cl)c1)c1ccccn1`, the fold shift was 1.44 (inactive).
